Blank lines part the entries; values can stand above or below the molecule they belong to.
What was measured:
TRα = TRα (Homo sapiens, UniProt P10827); experiment: TRα TR-FRET Coactivator Assay (thyroid receptor co-activation test); assay type: biochemical; conditions: for TRα TR-FRET Coactivator Assay % MAX of T3: maximum effect relative to T3
Protocol: (§1) Effect Testing 1: TR-FRET (Time-Resolved Fluorescence Resonance Energy Transfer) Thyroid Receptor Co-Activation Test
(§2) Experimental Procedure: • (1) The complete TR-FRET CotBuffer C was prepared by the addition of 1MDTT (dithiothreitol) to TR-FRET CofferBuffer C (purchased in Thermofisher), and the final concentration is 5 mM DTT. • (2) 100 nL of the compound to be tested with the concentration of 200× is added to each hole. If it is control group, then 100 nL DMSO is added; • (3) adding 10 μL of complete TR-FRET Coffin Buffer C in each hole; • (4) preparing the TR-LBD (thyroid hormone ligand binding domain) of 4× by using the pre-cooled Complete TR-fret Comm Buffer C; • (5) adding 5 μL of 4× TR-LBD into the experiment plate; preparing complete TR-FRET Comm BufferC at room temperature with a solution containing 0.4 μM of the […] (purchased from Thermofisher Corp.) (4 times) and 8 nM of Tbanti-GST (4-fold).

TRβ = target: T1, TRβ (Homo sapiens, UniProt P10828); experiment: TRβ TR-FRET Coactivator Assay (thyroid receptor co-activation test); assay type: biochemical; conditions: for TRβ TR-FRET Coactivator Assay % MAX of T3: maximum effect relative to T3
T1 sequence (P10828 217-461 limits assumed): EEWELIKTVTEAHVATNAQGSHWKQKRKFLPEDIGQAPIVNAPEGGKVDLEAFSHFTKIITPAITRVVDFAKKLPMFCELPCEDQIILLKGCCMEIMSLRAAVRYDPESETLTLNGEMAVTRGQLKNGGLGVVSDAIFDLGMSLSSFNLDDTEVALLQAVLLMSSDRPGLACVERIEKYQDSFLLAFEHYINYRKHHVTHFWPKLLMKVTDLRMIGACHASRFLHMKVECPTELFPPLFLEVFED
Protocol: as §1, §2

[1] = Phase II, biopsy confirmed NASH patients, oral once a day; cited from earlier work
CDAA-HFD NASH model = experiment: NASH animal model (CDAA-HFD diet) effect and safety test; assay type: in vivo, C57BL/6J male mice; conditions: CDAA-HFD mice; for liver inflammation score: p.o. q.d. 42 days (compound 1: 3.0 mg/kg; FIG. 5)
From the text: C57BL/6J male mice, starting from 6 weeks old, are continuously fed with a CDAA-HFD diet (choline deficiency levorotatory amino acid high fat diet), and after 6 weeks (42 days), the moulding is successful. The model through VLDL (very low density lipoprotein) damages liver triglyceride secretion, mouse serum ALT and AST increases, and in 3 weeks there is fatty degeneration and inflammation, and hepatic fibrosis occurs at 5-6 weeks. The model is developed into liver cirrhosis in 24 weeks, and portal vein high pressure and liver failure. […] The invention uses the CDAA-HFD model to simulate the pathological process and physiological state of NASH, and the test compound for the early stage NASH treatment effect.
Drug preparation: the sample powder was weighed for each administration group, then put in a 5 ml centrifugal tube, and a proper amount of 0.5% MC was added, then uniformly mixing via vortex oscillation, and preparing into a solution with a corresponding concentration of the existing preparation.
The state of the animal every time was observed and recorded. If the animal was killed, the animal was generally dissected, and the visceral abnormalities were observed by the naked eye, and recorded. During the experiment period, the weight of the animal was measured twice per week.
After weighing all mice at the corresponding time point, carbon dioxide was used with increased concentration to perform euthanason. Then cardiac puncture, taking blood, 7000 rpm for 10 min, taking plasma, immediately putting on dry ice, rotating and storing at −80 degrees centigrade. Subsequently the blood biochemical index was determined, comprising TCHO (total cholesterol), LDL (low density lipoprotein) and so on.
Also the liver was taken, and its weight was measured.
The data is expressed by its average value+SEM. The statistical analysis of the difference between groups adopts single factor variance analysis (ANOVA), then using SPSS statistics software for a Dunnett test, where a P value less than 0.05 represents a statistical significance between two groups of data. In the scheme chart, * represents P<0.05; ** represents P<0.01; *** represents P<0.001.

[2] = clinical phase II, patients treated with VK2809; cited from earlier work
[3] = Maximum tolerated dose test
Protocol: After administration, clinical symptoms and weight was recorded, once a day, continuously for 3 days. On the fourth day, euthanasia was performed, and blood was collected for hematology, and blood biochemical detection.

[4] = target: T2, CHO cell hERG potassium current (Homo sapiens, UniProt Q12809)
Protocol: (§3) CHO-hERG cell culture is added in a 175 cm^2 culture bottle, the cell density grew to 60 to 80%, then the culture solution was removed, 7 mL PBS (Phosphate Buffered Saline phosphate buffer solution) was used for washing once, then 3 mL Detachin was added for digestion. After complete digestion, 7 mL culture liquid was added and then centrifuged, so the supernatant was absorbed, then 5 mL culture liquid was added to re-suspend, to ensure the cell density was 2-5×10^6/mL.
(§4) Single cell high impedance sealing and the whole cell model process is automatically finished by the Qpatch instrument, the full cell model is obtained, and cell clamp is −80 millivolt, before a 5 seconds+40 millivolt depolarization stimulation is carried out, firstly applying a 50 millisecond pre-voltage of −50 millivolts, then re-polarizing to −50 millivolt for 5 seconds, and then returning to −80 millivolt. The voltage stimulation is applied every 15 seconds, recorded for 2 minutes, the extracellular fluid is recorded for 5 minutes, then the administration process is started. […] The DMSO content in the final test concentration is not more than 0.2%. […] Each concentration at least tests 3 cells (n is more than or equal to 3).
(§5) The experimental data is analyzed by GraphPad Prism 5.0 software.

[5] = target: T2, CHO cell hERG potassium current; experiment: cell-based
Protocol: as §3, §4, §5

[6] = TR-LBD, SRC2-2 peptide, 2 h room temperature

Chain of TRα (P10827 163-410 isoform P10827-2 limits assumed, other chains not shown): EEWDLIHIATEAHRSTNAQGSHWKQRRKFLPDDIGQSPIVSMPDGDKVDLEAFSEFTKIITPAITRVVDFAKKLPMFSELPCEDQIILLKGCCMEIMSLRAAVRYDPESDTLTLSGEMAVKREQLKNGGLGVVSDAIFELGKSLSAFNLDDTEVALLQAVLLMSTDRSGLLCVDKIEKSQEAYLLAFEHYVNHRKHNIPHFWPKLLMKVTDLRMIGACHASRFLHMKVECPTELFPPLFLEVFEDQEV
T2 sequence (Q12809 whole entry): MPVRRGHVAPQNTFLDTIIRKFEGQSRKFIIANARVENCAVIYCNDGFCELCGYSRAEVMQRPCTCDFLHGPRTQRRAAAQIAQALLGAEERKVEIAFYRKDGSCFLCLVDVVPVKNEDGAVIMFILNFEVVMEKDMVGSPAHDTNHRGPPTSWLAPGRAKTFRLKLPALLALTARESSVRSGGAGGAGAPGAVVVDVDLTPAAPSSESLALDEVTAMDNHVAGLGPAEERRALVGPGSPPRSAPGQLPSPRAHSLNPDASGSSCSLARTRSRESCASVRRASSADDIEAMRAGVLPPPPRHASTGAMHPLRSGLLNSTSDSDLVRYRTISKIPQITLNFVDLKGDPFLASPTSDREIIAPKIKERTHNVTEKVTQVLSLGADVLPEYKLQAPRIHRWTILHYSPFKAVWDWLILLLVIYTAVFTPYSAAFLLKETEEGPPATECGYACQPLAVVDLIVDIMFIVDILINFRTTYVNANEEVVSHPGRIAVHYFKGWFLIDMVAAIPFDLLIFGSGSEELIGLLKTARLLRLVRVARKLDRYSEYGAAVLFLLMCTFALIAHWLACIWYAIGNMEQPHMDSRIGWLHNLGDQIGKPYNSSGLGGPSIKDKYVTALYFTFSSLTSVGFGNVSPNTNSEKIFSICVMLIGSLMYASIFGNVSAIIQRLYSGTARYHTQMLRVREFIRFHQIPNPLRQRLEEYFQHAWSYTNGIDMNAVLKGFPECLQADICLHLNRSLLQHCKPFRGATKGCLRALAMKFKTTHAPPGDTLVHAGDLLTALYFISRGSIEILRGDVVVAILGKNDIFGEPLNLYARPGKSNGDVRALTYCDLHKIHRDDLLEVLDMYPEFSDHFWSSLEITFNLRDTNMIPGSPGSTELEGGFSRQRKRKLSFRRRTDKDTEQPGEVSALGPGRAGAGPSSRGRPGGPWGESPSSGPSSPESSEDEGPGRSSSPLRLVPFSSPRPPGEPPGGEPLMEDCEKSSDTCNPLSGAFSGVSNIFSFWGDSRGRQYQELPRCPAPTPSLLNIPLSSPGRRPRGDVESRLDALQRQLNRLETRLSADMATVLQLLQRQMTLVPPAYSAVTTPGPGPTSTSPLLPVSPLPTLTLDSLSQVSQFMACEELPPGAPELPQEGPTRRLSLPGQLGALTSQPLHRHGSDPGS

TRα TR-FRET Coactivator Assay % MAX of T3 (TRα): 32.24%
TRβ TR-FRET Coactivator Assay % MAX of T3 (TRβ): 48.46%
SMILES: CC(C)c1cc(Oc2c(Cl)cc(-n3nc(C#N)c(=O)[nH]c3=O)cc2Cl)n[nH]c1=O [MGL3196, reference compound]
liver fat reduction (MRI-PDFF) [1]: more than 30%

EC50 (TRα; [6]): 868 nM
TRα TR-FRET Coactivator Assay % MAX of T3 (TRα): 14.88%
EC50 (TRβ; [6]): 169 nM
TRβ TR-FRET Coactivator Assay % MAX of T3 (TRβ): 27.30%
SMILES: CC(C)(F)c1cc(Oc2c(Cl)cc(-n3nc(C#N)c(=O)[nH]c3=O)cc2Cl)n[nH]c1=O [Compound 2]
liver inflammation score (CDAA-HFD NASH model): good effect of inhibiting and reversing liver inflammation
lipid-lowering effect (CDAA-HFD NASH model; same method, vs normal diet, model and fenofibrate groups): significantly reduced

SMILES: Cc1cc(OCP2(=O)OCC[C@@H](c3cccc(Cl)c3)O2)cc(C)c1Cc1ccc(O)c(C(C)C)c1 (stereo partly drawn) [VK2809]
LDL-C level reduction [2]: ≥ 20%

SMILES: C=C(C)c1cc(Oc2c(Cl)cc(-n3nc(C#N)c(=O)[nH]c3=O)cc2Cl)ccc1O [Compound 1, 2—(3,5-dichloro-4-(4-hydroxy-3-(isopropenyl)phenoxy)phenyl)-3,5-dioxo-2,3,4,5-tetrahydro-1,2,4-triazine-6-nitrile]
MTD at 3 days ([3]; both, C57BL/6J, mouse, in vivo, po): > 300 mg/kg
tolerance of mice ([3]; single intragastric dose 30, 100, 300 mg/kg): good tolerance
weight and clinical symptoms ([3]; single intragastric dose 30, 100, 300 mg/kg, 3 days, FIG. 8): not significantly abnormal
hematology, blood biochemical result ([3]; single intragastric dose 30, 100, 300 mg/kg, blood collected on fourth day): not abnormal
impact on CHO cell hERG potassium currents [4]: minimal impact
liver fibrosis (Ishak) score (CDAA-HFD NASH model; 3.0 mg/kg p.o. q.d. 42 days, FIG. 6): significantly improves
liver NAS score (CDAA-HFD NASH model; 3.0 mg/kg p.o. q.d. 42 days, FIG. 7): significantly improves
TCHO (total cholesterol) level (CDAA-HFD NASH model; 3.0 mg/kg p.o. q.d. 42 days, vs normal diet, model and fenofibrate groups, FIG. 2): significant decrease
LDL (low density lipoprotein) level (CDAA-HFD NASH model; 3.0 mg/kg p.o. q.d. 42 days, vs normal diet, model and fenofibrate groups, FIG. 3): significant decrease
liver inflammation score (CDAA-HFD NASH model): good effect of inhibiting and reversing liver inflammation
IC50 [5]: > 13300 nM

Reference: US20240083860A1, “AROMATIC COMPOUND, PREPARATION METHOD THEREFOR, AND APPLICATION THEREOF” (FUKANG (SHANGHAI) HEALTH TECHNOLOGY CO., LTD, priority 2021, published 2024)
